Measured values from patent US20240392239A1, “METHODS FOR MODULATING CELL PLURIPOTENCY AND SELF-RENEWAL PROPERTY” (Memorial Sloan-Kettering Cancer Center, priority 2021, published 2024).

Experiments:
[1] = system: non-small cell lung cancer (NSCLC) cell lines (H2170, A549, Calu-1); test: Isotope tracing ([U-13C] glucose or [U-13C] glutamine) of TCA cycle metabolites in NSCLC cell lines; type: cell-based, human; conditions: 50 μM for 24 h
Protocol: (§1) C2C12 cells were maintained at sub-confluence as myoblasts unless otherwise noted. All myoblast experiments were performed in high glucose DMEM supplemented with 10% FBS and 4 mM L-glutamine. For differentiation into myotubes, C2C12 cells were grown to 100% confluence for three days and then washed with PBS and changed into differentiation medium composed of high glucose DMEM supplemented with 2% horse serum (catalog no. 26050070; Gibco), 4 mM L-glutamine and 100× insulin-transferrin-selenium-ethanolamine (ITS-X; catalog no. 51500056; Gibco) for the indicated length of time (3, 5 or 7 days). Differentiation medium was refreshed every day. For non-small cell lung cancer (NSCLC) cell line studies, H2170, A549, and Calu-1 cell lines were thawed and passaged in RPMI-1640 supplemented with 10% FBS before being transitioned to high glucose DMEM supplemented with 10% FBS and 4 mM L-glutamine for several passages prior to experiments. 143B cells were maintained in high glucose DMEM supplemented with sodium pyruvate, 10% FBS and penicillin-streptomycin. All cells routinely tested negative for Mycoplasma.
For mass spectrometric analyses in C2C12 myoblasts and NSCLC cell lines, cells were seeded in six-well plates and medium was changed 24 h later. […] 48 h prior to harvest, myoblasts were supplemented with 1 μg/mL doxycycline to induce shRNA expression. For analysis of myotubes, cells seeded in six-well plates were grown to 100% confluence for 3 days, washed with PBS and changed to differentiation medium that was refreshed every day for 7 days. On the final day of differentiation, cells were washed with PBS and changed to experimental medium described above. For analysis of C2C12 myotube genetic hairpin lines, cells were processed as described above but medium was supplemented with 1 μg/mL doxycycline for the final four days of differentiation to induce shRNA expression. ESCs and NSCLC lines treated with inhibitors were processed as described above but medium was supplemented with DMSO, 50 μM BMS-303141 (catalog no. SML0784; Sigma), 5 mM dichloroacetate (catalog no. 3447795; Sigma) or 10 μM UK-5099 (catalog no. 4186; Tocris) for 24 h prior to harvest. At harvest, metabolites were extracted with 1 mL ice-cold 80% methanol containing 2 μM deuterated 2-hydroxyglutaratc (d-2-hydroxyglutaric-2,3,3,4,4-d5 acid (d5-2HG)). […]
(§2) Gas chromatography-mass spectrometry. […] Samples were analyzed using an Agilent 7890A Gas Chromatograph coupled to an Agilent 5977C mass selective detector. […] Peaks representing compounds of interest were extracted and integrated using the MassHunter software v.B.08 (Agilent Technologies) and then normalized to both the internal standard (d5-2HG) peak area and protein content of triplicate samples as determined by bicinchoninic acid assay (Thermo Fisher Scientific). […]

[2] = system: ASNase-expressing 143B human osteosarcoma cells; test: [U-13C] asparagine tracing in ASNase-expressing 143B cells; type: cell-based; conditions: 50 μM for 24 h (FIGS. 6E and 6F)
Protocol: 143B cells were plated in six-well plates; 24 h later, media was changed to DMEM supplemented with 10% dialyzed FBS, 1 mM asparagine and DMSO or 50 μM BMS-303141. After 20 h, media was changed to DMEM supplemented with 10% dialyzed FBS, 1 mM [U-^13C]asparagine and DMSO or 50 μM BMS-303141. Cells were extracted with 300 μL 80% methanol containing Valine-D8 as an internal control. 143B extracts were further processed by LCMS, described below.
Liquid chromatography-mass spectrometry.

[3] = system: mouse embryonic stem cells (ESCs); test: [U-13C] glucose tracing of TCA cycle metabolites in mouse embryonic stem cells; type: cell-based
Protocol: Metabolic analyses. […] For mass spectrometric analyses in C2C12 myoblasts and NSCLC cell lines, cells were seeded in six-well plates and medium was changed 24 h later. […] 48 h prior to harvest, myoblasts were supplemented with 1 μg/mL doxycycline to induce shRNA expression. For analysis of myotubes, cells seeded in six-well plates were grown to 100% confluence for 3 days, washed with PBS and changed to differentiation medium that was refreshed every day for 7 days. On the final day of differentiation, cells were washed with PBS and changed to experimental medium described above. For analysis of C2C12 myotube genetic hairpin lines, cells were processed as described above but medium was supplemented with 1 μg/mL doxycycline for the final four days of differentiation to induce shRNA expression. ESCs and NSCLC lines treated with inhibitors were processed as described above but medium was supplemented with DMSO, 50 μM BMS-303141 (catalog no. SML0784; […] Sigma) or 10 μM UK-5099 (catalog no. 4186; Tocris) for 24 h prior to harvest. […] After overnight incubation at -80° C., lysates were collected and centrifuged at 21,000 g for 20 min to remove protein. All extracts were further processed by LCMS (for analysis of NADH, lactate and pyruvate (deuterium labeling and lactate/pyruvate ratio) and succinate (deuterium labeling only) or GCMS (for all other analyses) as described below. Gas chromatography-mass spectrometry. […] Metabolites were further derivatized by adding 80 μl of N-methyl-N-(trimethylsilyl) trifluoroacetamide+1% TCMS (Thermo Fisher Scientific) and 70 μl ethyl acetate (Sigma-Aldrich) and then incubated at 37° C. for 30 min. Samples were analyzed using an Agilent 7890A Gas Chromatograph coupled to an Agilent […] mass selective detector. The gas chromatograph was operated in splitless injection mode with constant helium gas flow at 1 ml min^-1; 1 μl of derivatized metabolites was injected onto an HP-5 ms column and the gas chromatograph oven temperature ramped from 60 to 290° C. for 25 min. Peaks representing compounds of interest were extracted and integrated using the MassHunter software v.B.08 (Agilent Technologies) and then normalized to both the internal standard (d5-2HG) peak area and protein content of triplicate samples as determined by bicinchoninic acid assay (Thermo Fisher Scientific). Steady-state metabolite pool levels were derived by quantifying the following ions: d5-2HG, 354 m/z; αKG, 304 […]; citrate, 465 m/z; fumarate, 245 m/z; malate, 335 m/z; and succinate, 247 m/z. All peaks were manually inspected and verified relative to known spectra for each metabolite. Enrichment of [^13C] or [^2H] was assessed by quantifying the abundance of the following ions: aspartate, 334-346 m/z; citrate, 465-482 m/z; fumarate, 245-254 m/z; and malate, 335-347 m/z. […]

Rex1::GFPd2 ESCs = test: Exit from naïve pluripotency, Rex1::GFPd2 reporter analysis; type: cell-based, mouse; conditions: 2i/LIF withdrawal for 40 h; 50 μM (FIG. 4I)
Protocol: 2i/LIF-cultured ESCs were seeded at least 24 h prior to being washed with PBS and changed into serum-free maintenance medium without 2i or LIF at the indicated time before harvest (12, 24 or 40 h). Unless otherwise noted, cells were adapted to serum/LIF+2i culture prior to exit from naïve pluripotency.
Rex1::GFPd2 analysis. On the day of analysis, cells were trypsinized and resuspended in FACS buffer (PBS+2% FBS+1 mM EDTA) containing 4,6-diamidino-2-phenylindole (DAPI, 1 μg/mL). […] Viable cells were those excluding DAPI. Rex1::GFPd2 expression was measured by GFP mean fluorescence intensity (MFI) and quantified using FCS Express v7.0.5 or FlowJo v10.8.0.

C2C12 myoblasts = test: [U-13C] glucose tracing of TCA cycle metabolites in C2C12 myoblasts; type: cell-based, mouse
Protocol: as §1, with “143B cells were maintained in high glucose DMEM supplemented with sodium pyruvate, 10% FBS and penicillin-streptomycin. All cells routinely tested negative for Mycoplasma.” left out
as §2

Acly-edited ESCs [4] = conditions: 2i/LIF withdrawal for 40 h; 5 mM sodium acetate (FIG. 12F)
Protocol: Viability assays. Serum/LIF+2i-adapted ESCs were seeded at a density of 24,000 cells per well of a 24-well plate in triplicate or quadruplicate. 24 h later, cells were washed with PBS and changed into either fresh scrum/LIF+2i medium or medium containing a 1:1 mix of glutamine-free DMEM and Neurobasal medium including N-2 supplement, B-27 supplement, 2-mercaptoethanol and 2 mM L-glutamine for 40 h. Cells were evaluated for propidium iodide (PI) on an LSRFortessa flow cytometer using FACSDiva software v8.0 (BD Biosciences). Analysis of PI exclusion was performed with FCS Express v.7.05 or FlowJo v10.8.0.

[5] = system: control and Acly-edited ESCs
Protocol: Quantification of gene expression. RNA was isolated from six-or twelve-well plates using TRIzol (Invitrogen) according to the manufacturer's instructions and 200 ng RNA was used for complementary DNA (cDNA) synthesis using the iScript cDNA Synthesis Kit (Bio-Rad). Quantitative real-time PCR analysis was performed in technical triplicate using QuantStudio 5 or 6 Flex (Applied Biosystems) with Power SYBR Green Master Mix (Thermo Fisher Scientific). All data were generated using cDNA from 3 independent wells for each condition. Actin was used as an endogenous control for all experiments. See Supplementary Table 1 for qRT-PCR primer sequences.

[6] = system: control and Acly-edited ESCs; conditions: 2i/LIF withdrawal for 40 h with 5 mM sodium acetate, reseeded into 2i and LIF (FIG. 12K)
Source text: Colony formation assay. […] Medium was refreshed every 3 days.

Acly-edited ESCs [7] = conditions: 2i/LIF withdrawal for 40 h, 5 mM sodium acetate (FIG. 12E)
Source text: Western blotting. Protein lysates were extracted in 1×RIPA buffer (Cell Signaling Technology), separated by SDS-polyacrylamide gel electrophoresis and transferred to nitrocellulose membranes (Bio-Rad). For histone blots, cell pellets were flash frozen in ethanol and resuspended in Laemmli buffer for sonication. Samples were mixed with 5% BME and 0.01% bromophenol blue prior to identical separation as for protein lysates. Membranes were blocked in 3% milk in Tris-buffered saline with 0.1% Tween 20 (TBST) or 5% BSA in TBST and incubated at 4° C. with primary antibodies overnight. After TBST washes the next day, membranes were incubated with horseradish peroxidase-conjugated secondary antibodies for at least 2 h, incubated with enhanced chemiluminescence (Thermo Fisher Scientific) and imaged with an SRX-101A X-ray Film Processor (Konica Minolta). […]

[8] = system: control and Acly-edited ESCs; conditions: labeled acetate, 5 mM; 40 h of 2i/LIF withdrawal (FIG. 12D)
Protocol: Fatty acid analyses. To analyze fatty acids in scrum/LIF+2i-cultured ESCs undergoing exit from pluripotency, ESCs were seeded in maintenance medium in six-well plates overnight. The next day, cells were washed with PBS and changed into medium containing a 1:1 mix of glutamine-free DMEM and Neurobasal medium including N-2 supplement, B-27 supplement, 2-mercaptoethanol and 2 mM L-glutamine. […] At harvest, lysates were collected in PBS and centrifuged at 6,800 g for 5 min to pellet cells. To isolate fatty acids, cell pellets were resuspended in 400 μl HPLC grade methanol followed by 800 μl HPLC grade chloroform and samples were vortexed for 10 min at 4° C. 300 μl HPLC grade water then added to induce phase separation. 800 μl of the bottom chloroform layer was moved to a new tube and lyophilized. Dried samples were saponified by resuspending in 1 ml of 80% methanol with 0.3 M KOH and heating at 80° C. for 1 h in a glass vial. […]
Liquid chromatography-mass spectrometry. […] Metabolite quantitation was performed using a Q Exactive HF-X Hybrid Quadrupole-Orbitrap Mass Spectrometer equipped with an Ion Max API source and H-ESI II probe, coupled to a Vanquish Flex Binary UHPLC system (Thermo Scientific). […] Metabolites were detected over mass range of 70-1050 m/z in full scan positive mode, or SIM in positive mode using a quadrupole isolation window of 0.7 m/z. […]

ESC = conditions: previous reports (ref 39); cited from earlier work
[9] = [U-13C] glucose, three NSCLC cell lines (FIG. 6B)

COc1ccc(-c2ccccc2)cc1NS(=O)(=O)c1cc(Cl)cc(Cl)c1O [BMS-303141]
mal+2/cit+2 ratio ([1]; [U-13C] glucose, three NSCLC cell lines (FIG. 1E)): increased
fraction of citrate m+2 [1, 9]: only a minor effect
proportion of malate containing two labeled carbons (malate m+2) [1, 9]: increased
glutamine anaplerosis ([1]; [U-13C] glutamine, three NSCLC cell lines (FIG. 6C)): did not uniformly affect
ratio of cit+2/cit+4 [2]: significantly increased
decrease in enrichment of the m+2 isotopologue of malate relative to citrate (Mal+2/Cit+2) ([3]; [U-13C] glucose, serum/LIF ESCs, 50 μM for 24 h (FIG. 2B)): mitigated
downregulation of Rex1::GFPd2 reporter activity following 2i/LIF withdrawal (Rex1::GFPd2 ESCs): almost completely prevented

N#C/C(=C\c1cn(-c2ccccc2)c2ccccc12)C(=O)O [UK-5099]
incorporation of glucose-derived carbons into TCA cycle metabolites ([3]; ESCs, 10 μM UK-5099 (MPCi) for 24 h (FIG. 10E)): reduced
mal+2/cit+2 ratio ([3]; ESCs, 10 μM UK-5099 (MPCi) for 24 h (FIG. 10F)): repressed
incorporation of glucose-derived carbons into TCA cycle metabolites (C2C12 myoblasts; 10 μM UK-5099 (MPCi) for 24 h (FIG. 10C)): reduced
mal+2/cit+2 ratio (C2C12 myoblasts; 10 μM UK-5099 (MPCi) for 24 h (FIG. 10D)): repressed

CC(=O)[O-].[Na+] [acetate, sodium acetate]
processivity (malate m+2/citrate m+2 ratio) ([3]; S/L-cultured ESCs, 5 mM sodium acetate for 24 h (FIGS. 15A-15D)): enhances
decline in viability observed in Acly-edited clones (Acly-edited ESCs [4]): only minimally rescued
markers of naïve pluripotency ([5]; 2i/LIF withdrawal for 40 h, 5 mM sodium acetate (FIGS. 12I-12J)): tended to increase
effects of ACL loss on exit from pluripotency ([5]; Acly-edited ESCs, 5 mM sodium acetate, qRT-PCR, Rex1::GFPd2 MFI and AP-positive colonies (FIGS. 12I-12K)): does not reverse
colony formation ability (AP-positive colonies) [6]: tended to increase
histone acetylation (Acly-edited ESCs [7]): restored
de novo lipid synthesis (fractional labeling of palmitate) [8]: contributed
ESC self-renewal (ESC): promotes
